Experimental data from patent publication US20030206898A1, “Use of anti-TNFalpha antibodies and another drug” (priority 2002, published 2003).
“And” between values parts separate entries of the source, which are not always exact repeats. Equal entries are not always repeated. “Also recorded” adds a separate entry of the source.

Experiments:
[1] = test system: patients with rheumatoid arthritis (RA); assay: Multicenter, randomized, double-blind, placebo-controlled study of D2E7 40 mg sc every other week added to current anti-rheumatic therapies: efficacy (ACR response); type: in vivo, human
Protocol: (§1) A study was designed and conducted to investigate the safety and efficacy of D2E7 40 mg administered every other week to patients with RA whose disease was not adequately treated with their current anti-rheumatic therapies (including accepted DMARDs, NSAIDs, or steroids); and was a multicenter, randomized, double-blind, placebo-controlled study in which D2E7 was subcutaneously (sc) administered every other week for up to 24 weeks at a dosage of 40 mg to patients with rheumatoid arthritis (RA) whose disease was not adequately treated with their current anti-rheumatic therapies. Anti-rheumatic therapies permitted for use during the study included accepted disease-modifying anti-rheumatic drugs (DMARDs), non-steroidal anti-inflammatory drugs (NSAIDs), or steroids. Despite using anti-rheumatic therapies, patients must have had active disease documented at both the screening and baseline visits. Doses of DMARDs, as well as concomitant prednisone (<10 mg daily) and NSAIDs, were required to be stable for at least 28 days prior to screening. Additionally, patients using azathioprine and/or cyclosporine discontinued these therapies and underwent a 28-day washout period before screening. At the baseline visit, patients were randomized to D2E7 or placebo and this signified the start of the 24-week placebo-controlled period. Patients were examined at Weeks 2, 4, 8, 12, 16, 20 and 24 of the study.
Patients were inadequately treated with their current anti-rheumatic therapies and had active RA, defined as ≧6 swollen joints and ≧9 tender joints. Additionally, patients using glucocorticoids were allowed into the study if the dose was equivalent to <10 mg/day prednisone and had remained unchanged for at least 28 days.
D2E7 was supplied in 2-mL glass vials (the concentration of D2E7 in each vial was 25 mg/mL (ie, 40 mg/1.6 mL)), each containing 40 mg D2E7/1.6 mL solution for injection. D2E7 was manufactured and supplied by Ebewe Arzneimittel GmbH, in Unterach, Austria. McKesson, HBOC Biosciences, in Rockville, Md., USA, packaged, labeled, stored and distributed D2E7 to the investigators at each site for this study. D2E7 was self-administered as a single sc injection of 40 mg every other week for a period of 24 weeks. The concentration of study drug was 25 mg/mL. Placebo/1.6 mL (citrate-phosphate buffer solution without D2E7) was self-administered as a single sc injection every other week for a period of 24 weeks.
Patients continued to receive their pre-study dose of anti-rheumatic therapies. Anti-rheumatic therapies permitted for use during the study included DMARDs (hydroxychloroquine, leflunomide, methotrexate, parenteral gold, oral gold and sulfasalazine, or any combination of these or other DMARDs), NSAIDs and steroids. Doses of these DMARDs as well as concomitant prednisone (<10 mg daily) and NSAIDs must have been stable for at least 28 days prior to screening.
Efficacy endpoints included: ACR20 response at Week 24; ACR50 and ACR70 at Week 24; AUC (area under the curve) of ACR20, ACR50 and ACR70 from baseline to Week 24; time to first response for ACR20, ACR50 and ACR70; numeric ACR (ACR—N); change from baseline to Week 24 in components of the ACR response criteria (tender joint count [TJC], swollen joint count [SJC], patient assessment of pain, patient and physician global assessments of disease activity, HAQ and C-reactive protein [CRP]); change from baseline to Week 24 in physical function as measured by SF-36, health utilities index (HUI), functional assessment of chronic illness therapy (FACIT) fatigue scale; Euro-QoL questionnaire; multidimensional assessment of fatigue (MAF) scale; subject summary survey; incidence and time to dose increases in background DMARD and/or steroid therapy; institution of new DMARD therapy for lack of clinical response; rheumatoid factor (RF); and morning stiffness.
Adverse events were summarized by frequency, percentage, as well as the rate per 100 patient-years. […]

[2] = test system: patients with rheumatoid arthritis (RA); assay: Same RA study: safety / adverse events; type: in vivo, human
Protocol: as §1, with “Additionally, patients using azathioprine and/or cyclosporine discontinued these therapies and underwent a 28-day washout period before screening. At the baseline visit, patients were randomized to D2E7 or placebo and this signified the start of the 24-week placebo-controlled period. Patients were examined at Weeks 2, 4, 8, 12, 16, 20 and 24 of the study.” left out
Adverse events were summarized by frequency, percentage, as well as the rate per 100 patient-years. […] All other efficacy variables were summarized descriptively (statistical characteristics, frequencies, percentages, confidence intervals) and analyzed by exploratory two-sided statistical tests. […]

[3] = Week 2, full analysis set, excluding Site #7
[4] = Week 4, full analysis set, excluding Site #7
[5] = Week 8, full analysis set, excluding Site #7
[6] = Week 12, full analysis set, excluding Site #7
[7] = Week 16, full analysis set, excluding Site #7
[8] = Week 20, full analysis set, excluding Site #7
[9] = Week 24, full analysis set, excluding Site #7
[10] = Week 24, subgroup Three or more DMARDs
[11] = Week 24, subgroup concomitant Antimalarial
[12] = Week 24, subgroup concomitant Leflunomide
[13] = Week 24, subgroup concomitant Methotrexate
[14] = Week 24, subgroup concomitant Sulfasalazine
[15] = through Week 24, full analysis set, excluding Site #7

Substance: D2E7: recombinant, neutralizing human anti-hTNFα antibody; VL region SEQ ID NO: 1, VH region SEQ ID NO: 2
- ACR50 response, patients responding ([1]; LOCF Week 24, N = 315): 95 (30.2) N (%)
- ACR70 response, patients responding ([1]; LOCF Week 24, N = 315): 48 (15.2) N (%)
- ACR-N, Mean ± SD ([1]; LOCF Week 24, N = 315): 21.2 ± 55.3
- Time to response ACR20: patients responding for the first time [1, 3]: 106 (33.7) N (%)
- Time to response ACR50: patients responding for the first time [1, 3]: 31 (9.8) N (%)
- Time to response ACR70: patients responding for the first time [1, 3]: 9 (2.9) N (%)
- Time to response ACR20: patients responding for the first time [1, 4]: 51 (16.2) N (%)
- Time to response ACR50: patients responding for the first time [1, 4]: 31 (9.8) N (%)
- Time to response ACR70: patients responding for the first time [1, 4]: 12 (3.8) N (%)
- Time to response ACR20: patients responding for the first time [1, 5]: 52 (16.5) N (%)
- Time to response ACR50: patients responding for the first time [1, 5]: 34 (10.8) N (%)
- Time to response ACR70: patients responding for the first time [1, 5]: 12 (3.8) N (%)
- Time to response ACR20: patients responding for the first time [1, 6]: 17 (5.4) N (%)
- Time to response ACR50: patients responding for the first time [1, 6]: 20 (6.3) N (%)
- Time to response ACR70: patients responding for the first time [1, 6]: 18 (5.7) N (%)
- Time to response ACR20: patients responding for the first time [1, 7]: 13 (4.1) N (%)
- Time to response ACR50: patients responding for the first time [1, 7]: 20 (6.3) N (%)
- Time to response ACR70: patients responding for the first time [1, 7]: 18 (5.7) N (%)
- Time to response ACR20: patients responding for the first time [1, 8]: 12 (3.8) N (%)
- Time to response ACR50: patients responding for the first time [1, 8]: 9 (2.9) N (%)
- Time to response ACR70: patients responding for the first time [1, 8]: 7 (2.2) N (%)
- ACR20 response, patients responding ([1]; Week 24, 40 mg sc every other week, N = 315): 167 (53.0) N (%)
- ACR20 response (primary efficacy endpoint) ([1]; Week 24, D2E7 added to current anti-rheumatic therapies): 53.0%
- ACR50 response, patients responding ([1]; Week 24, N = 315): 92 (29.2) N (%) and 92 (29.2)^a N (%)
- ACR70 response, patients responding ([1]; Week 24, N = 315): 47 (14.9) N (%) and 47 (14.9)^a N (%)
- ACR-N, Mean ± SD ([1]; Week 24, N = 315): 20.3 ± 55.2
- Time to response ACR20: patients responding for the first time [1, 9]: 3 (1.0) N (%)
- Time to response ACR50: patients responding for the first time [1, 9]: 10 (3.2) N (%)
- Time to response ACR70: patients responding for the first time [1, 9]: 8 (2.5) N (%)
- ACR20 % Response ([1]; Week 24, subgroup No DMARD): 50.0%
- ACR50 response ([1]; Week 24, subgroup No DMARD): 27.8%
- ACR70 response ([1]; Week 24, subgroup No DMARD): 18.5%
- ACR-N, Mean ± SD ([1]; Week 24, subgroup No DMARD): 12.8 ± 68.2
- ACR20 % Response ([1]; Week 24, subgroup One DMARD): 55.4%
- ACR50 response ([1]; Week 24, subgroup One DMARD): 31.0%
- ACR70 response ([1]; Week 24, subgroup One DMARD): 16.3%
- ACR-N, Mean ± SD ([1]; Week 24, subgroup One DMARD): 22.8 ± 56.0
- ACR20 % Response ([1]; Week 24, subgroup Other DMARDs): 52.0%
- ACR50 response ([1]; Week 24, subgroup Other DMARDs): 24.0%
- ACR70 response ([1]; Week 24, subgroup Other DMARDs): 16.0%
- ACR-N, Mean ± SD ([1]; Week 24, subgroup Other DMARDs): 25.3 ± 33.9
- ACR20 % Response [1, 10]: 45.5%
- ACR50 response [1, 10]: 18.2%
- ACR70 response [1, 10]: 9.1%
- ACR-N, Mean ± SD [1, 10]: 20.1 ± 37.2
- ACR20 % Response ([1]; Week 24, subgroup Two DMARDs): 50.0%
- ACR50 response ([1]; Week 24, subgroup Two DMARDs): 27.3%
- ACR70 response ([1]; Week 24, subgroup Two DMARDs): 9.1%
- ACR-N, Mean ± SD ([1]; Week 24, subgroup Two DMARDs): 19.5 ± 42.3
- ACR20 % Response [1, 11]: 50.7%
- ACR50 response [1, 11]: 29.3%
- ACR70 response [1, 11]: 12.0%
- ACR-N, Mean ± SD [1, 11]: 20.0 ± 45.5
- ACR20 % Response [1, 12]: 33.3%
- ACR50 response [1, 12]: 14.3%
- ACR70 response [1, 12]: 0.0%
- ACR-N, Mean ± SD [1, 12]: −0.5 ± 77.5
- ACR20 % Response [1, 13]: 56.7%
- ACR50 response [1, 13]: 30.9%
- ACR70 response [1, 13]: 15.2%
- ACR-N, Mean ± SD [1, 13]: 26.5 ± 42.3
- ACR20 % Response [1, 14]: 58.6%
- ACR50 response [1, 14]: 34.5%
- ACR70 response [1, 14]: 17.2%
- ACR-N, Mean ± SD [1, 14]: 21.4 ± 53.9
- Subgroup analyses of ACR20, ACR50, ACR70, ACR-N and their AUC ([1]; concomitant methotrexate, antimalarials, sulfasalazine, other DMARDs, or 0, 1, 2, ≧3 DMARDs, vs placebo): greater improvement; also recorded: higher response compared to placebo
- Improvement in RA in patients inadequately treated with existing DMARD therapies ([1]; in vivo): significant improvement
- Time to response ACR20: Non-responder [1, 15]: 61 (19.4) N (%)
- Time to response ACR50: Non-responder [1, 15]: 160 (50.8) N (%)
- Time to response ACR70: Non-responder [1, 15]: 231 (73.3) N (%)
- Time to response and AUC for ACR20, ACR50, ACR70; AUC for ACR-N; Euro-QoL, RF, MAF scale ([1]; vs placebo): improvement in therapeutic response over placebo
- Tolerability when added to existing DMARD therapies ([2]; 40 mg sc every other week, up to 24 weeks): generally well-tolerated
- Safety alone or in combination with other DMARDs ([2]; dose of 40 mg): safe
